Structures can show the parent of a compound that is named as a salt. Where two headings read alike, the source gives them in different places.
System: panel of 55 breast cancer cell lines
Assay: Cell growth inhibition assay (Cell Titer Glo, 72 h, 9 doses; GI50, TGI, LC50)
Format: cell-based, human
Settings: Homo sapiens, read-out: GI50 (converted)
[1] = AU565, AU565 cell line, censored GI50 values
[2] = BT-20, BT20 cell line, censored GI50 values
[3] = CAMA-1, CAMA1 cell line, censored GI50 values
[4] = HCC38, HCC38 cell line, censored GI50 values
[5] = HCC70, HCC70 cell line, censored GI50 values
[6] = HCC1143, HCC1143 cell line, censored GI50 values
[7] = HCC1187, HCC1187 cell line, censored GI50 values
[8] = HCC1419, HCC1419 cell line, censored GI50 values
[9] = HCC2185 cell line, censored GI50 values
[10] = MDA-MB-134-VI, MDAMB134VI cell line, censored GI50 values
[11] = MDA-MB-175-VII, MDAMB175VII cell line, censored GI50 values
[12] = MDA-MB-231, MDAMB231 cell line, censored GI50 values
[13] = MDA-MB-361, MDAMB361 cell line, censored GI50 values
[14] = MDA-MB-415, MDAMB415 cell line, censored GI50 values
[15] = MDA-MB-453, MDAMB453 cell line, censored GI50 values
[16] = MDA-MB-468, MDAMB468 cell line, censored GI50 values
[17] = SUM52PE, SUM52PE cell line, censored GI50 values
[18] = SUM149PT, SUM149PT cell line, censored GI50 values
[19] = SUM1315MO2, SUM1315MO2 cell line, censored GI50 values
[20] = SUM-159-PT, SUM159PT cell line, censored GI50 values
[21] = T47D, T47D cell line, censored GI50 values
[22] = UACC-812, UACC812 cell line, censored GI50 values
[23] = ZR-75-1, ZR751 cell line, censored GI50 values
[24] = BT-474, BT474 cell line, censored GI50 values
[25] = BT-483, BT483 cell line, censored GI50 values
[26] = HCC1395, HCC1395 cell line, censored GI50 values
[27] = HCC1428, HCC1428 cell line, censored GI50 values
[28] = HCC1500, HCC1500 cell line, censored GI50 values
[29] = HCC1806, HCC1806 cell line, censored GI50 values
[30] = HCC1937, HCC1937 cell line, censored GI50 values
[31] = HCC1954, HCC1954 cell line, censored GI50 values
[32] = SK-BR-3, SKBR3 cell line, censored GI50 values

Work on `Cc1cncc2cccc(S(=O)(=O)N3CCCN(C(=O)CN)C[C@@H]3C)c12` [Glycyl-H-1152] yielded a GI50 [1] of 7.24 µM, a GI50 (AU565, cell line AU565) of 7.24 µM and a GI50 [2] of 7.08 µM. The GI50 (BT-20, cell line BT20) was 7.08 µM, the GI50 (BT-474, cell line BT474) was 66.1 µM and the GI50 (BT-483, cell line BT483) was 44.7 µM. It also gave a GI50 [3] of 8.13 µM, a GI50 (CAMA-1, cell line CAMA1) of 8.13 µM and a GI50 [4] of 1.02 µM. It also gave a GI50 (HCC38, cell line HCC38) of 1.02 µM, a GI50 [5] of 0.813 µM and a GI50 (HCC70, cell line HCC70) of 0.813 µM. It also gave a GI50 [6] of 15.8 µM, a GI50 (HCC1143, cell line HCC1143) of 15.8 µM and a GI50 [7] of 0.832 µM. It also gave a GI50 (HCC1187, cell line HCC1187) of 0.832 µM, a GI50 [8] of 17 µM and a GI50 (HCC1419, cell line HCC1419) of 17 µM. The GI50 (HCC1428, cell line HCC1428) was 50.1 µM, the GI50 (HCC1500, cell line HCC1500) was 66.1 µM and the GI50 (HCC1937, cell line HCC1937) was 66.1 µM. It also gave a GI50 (HCC1954, cell line HCC1954) of 33.1 µM, a GI50 [9] of 2.88 µM and a GI50 (MCF7, cell line MCF7) of 21.4 µM. The GI50 [10] was 1.17 µM, the GI50 [11] was 33.1 µM and the GI50 [12] was 22.9 µM. The GI50 (MDA-MB-231, cell line MDAMB231) was 22.9 µM, the GI50 [13] was 33.1 µM and the GI50 (MDA-MB-361, cell line MDAMB361) was 33.1 µM. The GI50 [14] was 33.1 µM, the GI50 (MDA-MB-415, cell line MDAMB415) was 33.1 µM and the GI50 (MDA-MB-436, cell line MDAMB436) was 43.7 µM. For the same compound, the GI50 [15] was 28.2 µM, the GI50 (MDA-MB-453, cell line MDAMB453) was 28.2 µM and the GI50 [16] was 2.04 µM. It also gave a GI50 (MDA-MB-468, cell line MDAMB468) of 2.04 µM, a GI50 (SK-BR-3, cell line SKBR3) of 46.8 µM and a GI50 [17] of 9.12 µM. It also gave a GI50 (SUM52PE, cell line SUM52PE) of 9.12 µM, a GI50 [18] of 30.2 µM and a GI50 (SUM149PT, cell line SUM149PT) of 30.2 µM. For the same compound, the GI50 [19] was 11 µM, the GI50 [20] was 1.74 µM and the GI50 (SUM-159-PT, cell line SUM159PT) was 1.74 µM. The GI50 [21] was 15.1 µM, the GI50 (T47D, cell line T47D) was 15.1 µM and the GI50 [22] was 38 µM. The GI50 (UACC-812, cell line UACC812) was 38 µM, the GI50 [23] was 3.55 µM and the GI50 (ZR-75-1, cell line ZR751) was 3.55 µM. The GI50 (ZR-75B, cell line ZR75B) was 66.1 µM, the GI50 (cell line HCC2185) was 2.88 µM and the GI50 (cell line HCC3153) was 33.1 µM. It also gave a GI50 (cell line MDAMB134V) of 1.17 µM, a GI50 (cell line MDAMB175V) of 33.1 µM and a GI50 (cell line SUM1315MO) of 11 µM.
Work on `CCCCCN(C)CCC(O)(P(=O)(O)O)P(=O)(O)O` [Ibandronate sodium salt] yielded a GI50 [1] of 182 µM, a GI50 (AU565, cell line AU565) of 182 µM and a GI50 [2] of 20.4 µM. It also gave a GI50 (BT-20, cell line BT20) of 20.4 µM, a GI50 [24] of 105 µM and a GI50 [25] of 57.5 µM. For the same compound, the GI50 [3] was 162 µM, the GI50 [4] was 57.5 µM and the GI50 [5] was 69.2 µM. For the same compound, the GI50 [6] was 43.7 µM, the GI50 [7] was 170 µM and the GI50 [26] was 7.41 µM. For the same compound, the GI50 [8] was 7.59 µM, the GI50 [27] was 129 µM and the GI50 [28] was 38 µM. For the same compound, the GI50 [29] was 33.1 µM, the GI50 [30] was 40.7 µM and the GI50 [31] was 55 µM. It also gave a GI50 [9] of 15.1 µM, a GI50 (HCC3153 cell line, censored GI50 values) of 79.4 µM and a GI50 [10] of 69.2 µM. For the same compound, the GI50 [11] was 33.9 µM, the GI50 [12] was 74.1 µM and the GI50 [14] was 49 µM. It also gave a GI50 [15] of 110 µM, a GI50 [16] of 93.3 µM and a GI50 [32] of 89.1 µM. For the same compound, the GI50 [17] was 35.5 µM, the GI50 [18] was 174 µM and the GI50 (SUM225CWN, SUM225CWN cell line, censored GI50 values) was 501 µM. For the same compound, the GI50 [19] was 50.1 µM, the GI50 [20] was 42.7 µM and the GI50 [21] was 34.7 µM. It also gave a GI50 [22] of 155 µM, a GI50 [23] of 69.2 µM and a GI50 (ZR-75B, ZR75B cell line, censored GI50 values) of 141 µM.
`COc1cc2ncnc(Nc3ccc(F)c(Cl)c3)c2cc1OCCCN1CCOCC1` [Iressa] showed a GI50 (600MPE cell line, censored GI50 values) of 7.24 µM, a GI50 [1] of 1.07 µM and a GI50 [24] of 0.724 µM. For the same compound, the GI50 [25] was 6.17 µM, the GI50 (BT-549, BT549 cell line, censored GI50 values) was 15.1 µM and the GI50 [5] was 17.4 µM. It also gave a GI50 [6] of 11.7 µM, a GI50 [26] of 7.08 µM and a GI50 [8] of 2.75 µM. It also gave a GI50 [27] of 10.7 µM, a GI50 [28] of 8.13 µM and a GI50 [29] of 4.68 µM. For the same compound, the GI50 [30] was 8.32 µM, the GI50 [31] was 2.04 µM and the GI50 [9] was 9.33 µM. It also gave a GI50 (MDA-MB-157, MDAMB157 cell line, censored GI50 values) of 15.1 µM, a GI50 [11] of 0.209 µM and a GI50 [13] of 6.46 µM. For the same compound, the GI50 [14] was 7.41 µM, the GI50 [15] was 7.41 µM and the GI50 [32] was 2.82 µM. For the same compound, the GI50 [17] was 7.94 µM, the GI50 [18] was 2.88 µM and the GI50 (SUM185PE, SUM185PE cell line, censored GI50 values) was 20.9 µM. It also gave a GI50 [19] of 2.95 µM, a GI50 [20] of 8.51 µM and a GI50 [21] of 15.8 µM. For the same compound, the GI50 (UACC-893, UACC893 cell line, censored GI50 values) was 1.15 µM.

— patent publication US10770169B2, “Method of providing a treatment to a subject based on a dynamic pathway map” (THE REGENTS OF THE UNIVERSITY OF CALIFORNIA, priority 2010, dated 2020)
